These are literature values, as cited in PMC8146568, “Thermococcus bergensis sp. nov., a Novel Hyperthermophilic Starch-Degrading Archaeon” (Biology, 2021).

Where two headings read alike, the source gives them in different places.

The term Km denotes the substrate concentration at which the rate is half of its maximum.

For the data set, the system named is T1, glyceraldehyde-3-phosphate ferredoxin oxidoreductase (GAPOR).
T1 construct: gene gor; native, purified from starch-grown culture of "strain 7324" (DSM 8774 mixed culture, formerly attributed to Archaeoglobus fulgidus); 66 kDa monomer; N-terminus MRFSVLKINLNEKKVX(X)EVFEREXV
Kind of data set: benzyl viologen-dependent GAP oxidation, steady-state kinetics. Conditions: pH 7.8, 50 °C, read-out: apparent Km. The data set is classed as biochemical, Thermococcus bergensis.

Turning to `O=C[C@H](O)COP(=O)(O)O` [GAP, glyceraldehyde-3-phosphate], the Km (benzyl viologen as electron acceptor) is 5 µM.

Regarding `c1ccc(C[n+]2ccc(-c3cc[n+](Cc4ccccc4)cc3)cc2)cc1` [BV, benzyl viologen], the Km (artificial electron acceptor, GAP as co-substrate) is 4000 µM.
